This note sets out measurements from publication PMC3977056, “Optimum Conditions of Radioligand Receptor Binding Assay of Ligands of Benzodiazepine Receptors” (Iranian Journal of Pharmaceutical Research : IJPR, 2014).

One may read the Kd as the equilibrium constant for the complex coming apart. A higher Kd goes with weaker binding. The term Ki denotes the dissociation constant of the complex between target and ligand, obtained from inhibition or displacement.

Assay [1] concerns the target T1, GABAA receptor, benzodiazepine (BZD) binding site (rat cortical membrane).
T1 construct: native receptor in cortical membrane of male Sprague-Dawley rats
The assay is described as follows: radioligand saturation binding, centrifugation separation.

For assay [2] the target is unchanged. As to the kind of experiment: [3H]-flumazenil competition binding; […] used for nonspecific binding.
Assay [3] shares this target. The assay is described as follows: [3H]-flumazenil competition binding.

Consider `CCOC(=O)c1ncn2c1CN(C)C(=O)c1cc(F)ccc1-2` [[3H]-flumazenil], for which, in assay [1], the Kd turned out to be 1.35 ± 0.316 nM.
Consider `CN1C(=O)CN=C(c2ccccc2)c2cc(Cl)ccc21` [diazepam], for which the Ki in assay [2] was found to be 1.53 nM.
For the compound `Cc1cc(=O)n2nc(-c3ccccc3)oc2n1` [compound A, 2-phenyl-5-oxo-7-methyl-1,3,4-oxadiazolo[a,2,3]-pyrimidine], in assay [3], the Ki came to 1.9 nM.
